Measured values taken from patent US20200071667A1, “COMPOSITION COMPRISING GLYCYRRHIZIN FOR INDUCING DIFFERENTIATION INTO MYELOID-DERIVED SUPPRESSOR CELL FROM MYELOID CELL” (Konkuk University Glocal Industry-Academic Collabo, priority 2018, published 2020).

What was measured:
[1] = system: T cells; test: T cell activity measurement by CFSE analysis with glycyrrhizin-induced CD11b+Gr1 myeloid cells as stimulator cells; assay type: cell-based, mouse; conditions: stimulator cells from 300 μg/ml glycyrrhizin, 48 hours; responder:stimulator 1:1, 1:2, 1:4; 3 days
Experimental: Specifically, mouse myeloid cells were obtained in the same manner as in Example <2-2>, treated with 300 μg/ml of glycyrrhizin, and then cultured for 48 hours. Subsequently, CD11b+Gr1 myeloid cells induced to be differentiated were stained and separated with FACSAria to be used as stimulator cells, and for responder cells, T cells were isolated with FACSAria from splenocytes of mice of the control of Example 1 and stained with CFSE. The responder cells and the stimulator cells were treated with CD3 and CD28, which induce the activity of T cells, at a ratio of 1:1, 1:2, or 1:4 and further cultured for 3 days.

[2] = system: mouse myeloid cells; test: Differentiation into CD11b+Gr1 myeloid cells by glycyrrhizin concentration and culture time, flow cytometric analysis; assay type: cell-based; conditions: for expression level of CD11b+Gr1 myeloid cells: 300 μg/ml
Experimental: Flow cytometric analysis was performed to determine whether the concentration of glycyrrhizin with which myeloid cells were treated or culture time affects differentiation into CD11b+Gr1 myeloid cells from myeloid cells.
Specifically, mouse myeloid cells were obtained in the same manner as in Example <2-2>, treated with glycyrrhizin at a concentration of 100 μg/ml, 200 μg/ml, or 300 μg/ml, and then cultured for 24 hours or 48 hours. As a control, the myeloid cells were treated with 0.1 ml of PBS. Subsequently, the expression level of the myeloid cells was examined by the same flow cytometric analysis as that used in Example <2-1>.

[3] = system: myeloid cells having a phenotype of CD31+; test: Myeloid cell proliferation after glycyrrhizin treatment without LPS stimulation; assay type: cell-based, mouse; conditions: 100, 200 or 300 μg/ml; cultured 48 hours; without stimulation by LPS
Experimental: It was examined whether myeloid cells are capable of proliferating even when treated with glycyrrhizin alone without stimulation of the myeloid cells with LPS.
Specifically, myeloid cells having a phenotype of CD31+ were isolated from mouse myeloid cells obtained in the same manner as in Example 2-2. The myeloid cells were treated with glycyrrhizin at a concentration of 100 μg/ml, 200 μg/ml, or 300 μg/ml, and then cultured for 48 hours. As a control, the myeloid cells were treated with 0.1 ml of PBS. Subsequently, the expression level of myeloid cells was examined by the same flow cytometric analysis as that used in Example <2-1>.

[4] = system: iNOS; test: iNOS measurement by RT-PCR in glycyrrhizin-treated myeloid cells; assay type: cell-based, mouse; conditions: 100, 200 or 300 μg/ml, cultured 48 hours, vs negative control
Experimental: Specifically, myeloid cells were isolated from mice of the control of Example 1, treated with glycyrrhizin at a concentration of 100 μg/ml, 200 μg/ml, or 300 μg/ml, and then cultured for 48 hours. Thereafter, RT-PCR was performed. As a negative control, the myeloid cells were treated with 0.1 ml of PBS, and GAPDH was used as an expression control.

Compound: CC1(C)[C@@H](O[C@H]2O[C@H](C(=O)O)[C@@H](O)[C@H](O)[C@H]2O[C@@H]2O[C@H](C(=O)O)[C@@H](O)[C@H](O)[C@H]2O)CC[C@]2(C)[C@H]3C(=O)C=C4[C@@H]5C[C@@](C)(C(=O)O)CC[C@]5(C)CC[C@@]4(C)[C@]3(C)CC[C@@H]12 [glycyrrhizin, ammonium glycyrrhizinate]
- activity of T cells [1]: the higher the proportion of the stimulator cells (CD11b+Gr1 myeloid cells), the lower the activity of T cells
- expression level of CD11b+Gr1 myeloid cells ([2]; cultured 24 hours (control 9.10%)): 29.5%
- expression level of CD11b+Gr1 myeloid cells ([2]; cultured 48 hours (control 10.8%)): 53.1%
- expression level of CD11b+Gr1 myeloid cells, concentration dependence ([2]; 100, 200 or 300 μg/ml, cultured 24 hours): increased in a concentration-dependent manner
- proliferation of the myeloid cells [3]: increased in a manner dependent upon the concentration of glycyrrhizin
- expression level of iNOS [4]: increased in a concentration-dependent manner
